What was measured:
Assay type in all cases: biochemical
JAK1-JH1JH2 = JAK1-JH1JH2 (Homo sapiens (Human), UniProt P23458); experiment: Enzymatic inhibition assay (RapidFire HTMS), JAK1; details: 12.5 μM ATP, 200 μM substrate; read-out: JAK1-JH2JH1 IC50
How it was run: (§1)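 Quenched with 0.5% TFA plus internal-standard peptide; phosphorylated product quantified by RapidFire C4 SPE–ESI-MS, 11-point 1:3 or 1:4 dilutions in duplicate.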

JAK2-JH1JH2 = JAK2-JH1JH2 (Homo sapiens (Human), UniProt O60674); experiment: Enzymatic inhibition assay (RapidFire HTMS), JAK2; details: 30 μM ATP, 40 μM substrate
How it was run: as §1

JAK3-JH1JH2 = JAK3-JH1JH2 (Homo sapiens (Human), UniProt P52333); experiment: Enzymatic inhibition assay (RapidFire HTMS), JAK3; details: 150 μM ATP, 40 μM substrate
How it was run: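 JAK3 JH1JH2 reaction incubated 45 min at 25 °C, then quenched with 0.5% TFA containing 0.15 μM internal standard peptide. Phosphopeptide product measured by RapidFire C4 SPE–ESI MS (positive mode); inhibition from product decrease versus uninhibited enzyme, 11-point 1:3 or 1:4 dilutions in duplicate.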

Tyk2-JH1JH2 = Tyk2-JH1JH2 (Homo sapiens (Human), UniProt P29597, C1142A/C936A); experiment: Enzymatic inhibition assay (RapidFire HTMS), Tyk2; details: 50 μM ATP, 200 μM substrate
How it was run: as §1

Sequence of Tyk2-JH1JH2 (P29597 580-1182 C936A/C1142A): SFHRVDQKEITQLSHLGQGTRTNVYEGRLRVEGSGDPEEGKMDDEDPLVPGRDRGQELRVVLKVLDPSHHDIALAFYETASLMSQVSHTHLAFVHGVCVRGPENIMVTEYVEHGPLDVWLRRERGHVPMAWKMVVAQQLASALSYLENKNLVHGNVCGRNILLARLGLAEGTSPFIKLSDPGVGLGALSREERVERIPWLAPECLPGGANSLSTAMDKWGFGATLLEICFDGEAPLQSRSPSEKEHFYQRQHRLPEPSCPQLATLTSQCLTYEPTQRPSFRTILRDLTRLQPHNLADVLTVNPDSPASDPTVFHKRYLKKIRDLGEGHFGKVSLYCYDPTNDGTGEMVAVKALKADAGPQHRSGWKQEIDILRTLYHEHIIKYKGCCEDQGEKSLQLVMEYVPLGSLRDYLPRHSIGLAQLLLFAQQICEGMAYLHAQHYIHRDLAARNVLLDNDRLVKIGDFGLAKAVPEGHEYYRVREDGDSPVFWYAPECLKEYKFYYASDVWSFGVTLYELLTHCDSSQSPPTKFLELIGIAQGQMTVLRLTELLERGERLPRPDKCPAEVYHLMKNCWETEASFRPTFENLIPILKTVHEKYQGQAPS
Sequence of JAK1-JH1JH2 (P23458 574-1154): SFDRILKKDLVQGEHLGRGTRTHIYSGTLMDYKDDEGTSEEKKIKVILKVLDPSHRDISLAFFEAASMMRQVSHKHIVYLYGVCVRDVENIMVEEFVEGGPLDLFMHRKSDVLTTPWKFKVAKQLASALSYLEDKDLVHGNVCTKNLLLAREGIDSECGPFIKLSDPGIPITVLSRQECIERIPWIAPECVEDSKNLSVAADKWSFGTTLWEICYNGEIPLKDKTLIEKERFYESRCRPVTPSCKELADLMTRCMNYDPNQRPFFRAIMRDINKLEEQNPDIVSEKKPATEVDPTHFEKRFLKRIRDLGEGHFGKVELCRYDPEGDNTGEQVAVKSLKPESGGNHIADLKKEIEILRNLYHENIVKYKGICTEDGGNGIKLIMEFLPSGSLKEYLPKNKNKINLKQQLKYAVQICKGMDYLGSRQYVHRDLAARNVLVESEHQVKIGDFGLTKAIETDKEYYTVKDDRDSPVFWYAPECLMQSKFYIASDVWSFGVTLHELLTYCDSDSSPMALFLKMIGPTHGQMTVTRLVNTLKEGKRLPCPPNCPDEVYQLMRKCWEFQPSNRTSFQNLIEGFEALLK
Sequence of JAK2-JH1JH2 (O60674 532-1132): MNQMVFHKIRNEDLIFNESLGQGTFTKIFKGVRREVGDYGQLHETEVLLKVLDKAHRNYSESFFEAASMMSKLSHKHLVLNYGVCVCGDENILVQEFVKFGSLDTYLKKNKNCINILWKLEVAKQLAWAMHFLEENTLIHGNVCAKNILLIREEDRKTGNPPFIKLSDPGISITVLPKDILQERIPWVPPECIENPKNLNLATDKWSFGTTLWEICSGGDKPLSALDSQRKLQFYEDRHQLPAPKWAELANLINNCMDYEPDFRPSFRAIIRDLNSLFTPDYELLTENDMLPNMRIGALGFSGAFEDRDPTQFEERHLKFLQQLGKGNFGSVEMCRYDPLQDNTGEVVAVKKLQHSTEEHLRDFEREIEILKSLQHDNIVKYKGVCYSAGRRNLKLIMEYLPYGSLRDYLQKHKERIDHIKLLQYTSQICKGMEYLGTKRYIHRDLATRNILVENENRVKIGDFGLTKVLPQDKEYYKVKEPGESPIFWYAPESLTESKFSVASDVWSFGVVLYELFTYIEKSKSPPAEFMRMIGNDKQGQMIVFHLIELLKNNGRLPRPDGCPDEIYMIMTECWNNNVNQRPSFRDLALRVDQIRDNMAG
Sequence of JAK3-JH1JH2 (P52333 512-1124): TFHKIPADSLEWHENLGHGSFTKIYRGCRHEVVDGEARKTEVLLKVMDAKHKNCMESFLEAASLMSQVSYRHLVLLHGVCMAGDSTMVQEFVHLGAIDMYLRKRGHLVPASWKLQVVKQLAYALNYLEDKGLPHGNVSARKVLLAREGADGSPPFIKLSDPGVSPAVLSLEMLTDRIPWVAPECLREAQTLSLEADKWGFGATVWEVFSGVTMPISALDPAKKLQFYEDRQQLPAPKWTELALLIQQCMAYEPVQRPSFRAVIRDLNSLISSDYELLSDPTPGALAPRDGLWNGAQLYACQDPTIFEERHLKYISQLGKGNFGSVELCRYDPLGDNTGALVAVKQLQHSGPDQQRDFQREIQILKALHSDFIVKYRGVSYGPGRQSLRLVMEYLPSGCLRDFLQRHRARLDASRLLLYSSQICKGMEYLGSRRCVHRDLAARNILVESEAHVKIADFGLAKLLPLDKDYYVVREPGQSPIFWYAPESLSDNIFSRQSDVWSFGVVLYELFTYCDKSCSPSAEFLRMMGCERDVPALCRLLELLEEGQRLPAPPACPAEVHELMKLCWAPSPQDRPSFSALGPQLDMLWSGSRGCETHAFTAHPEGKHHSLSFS

SMILES	IC50 (JAK1-JH1JH2) [nM]	IC50 (JAK2-JH1JH2) [nM]	IC50 (JAK3-JH1JH2) [nM]	IC50 (Tyk2-JH1JH2) [nM]
CS(=O)(=O)c1ccc(-c2ccc(-c3nc4cnc5[nH]ccc5c4n3[C@H]3CC[C@H](CC#N)CC3)cc2)cc1 [Ex. 91, 2-((1r,4r)-4-(2-(4′-(Methylsulfonyl)-[1,1′-biphenyl]-4-yl)imidazo[4,5-d]pyrrolo[2,3-b]pyridin-1(6H)-yl)cyclohexyl)acetonitrile]	0.4	30.1	851	35.5
CC(C)c1noc(=O)n1Cc1nc2cnc3[nH]ccc3c2n1[C@H]1CC[C@H](CC#N)CC1 [Ex. 129, 2-((1r,4r)-4-(2-((3-Isopropyl-5-oxo-1,2,4-oxadiazol-4(5H)-yl)methyl)imidazo[4,5-d]pyrrolo[2,3-b]pyridin-1(6H)-yl)cyclohexyl)acetonitrile]	0.8	150	2690	10.7
N#CC[C@H]1CC[C@H](n2c(-c3ccnc(N)n3)nc3cnc4[nH]ccc4c32)CC1 [Ex. 53, 2-((1r,4r)-4-(2-(2-Aminopyrimidin-4-yl)imidazo[4,5-d]pyrrolo[2,3-b]pyridin-1(6H)-yl)cyclohexyl)acetonitrile]	0.2	3.2	61.8	9
N#CC[C@H]1CC[C@H](n2c(CC(=O)NC34CCC(C(N)=O)(CC3)C4)nc3cnc4[nH]ccc4c32)CC1 [Ex. 54, 4-(2-(1-((1r,4r)-4-(Cyanomethyl)cyclohexyl)-1,6-dihydroimidazo[4,5-d]pyrrolo[2,3-b]pyridin-2-yl)acetamido)bicyclo[2.2.1]heptane-1-carboxamide]	0.2	2.1	42	4.2
N#CC[C@H]1CC[C@H](n2c(CC(=O)N[C@H]3C[C@H](O)C3)nc3cnc4[nH]ccc4c32)CC1 [Ex. 37, 2-(1-((1r,4r)-4-(Cyanomethyl)cyclohexyl)-1,6-dihydroimidazo[4,5-d]pyrrolo[2,3-b]pyridin-2-yl)-N-((1R,3R)-3-hydroxycyclobutyl)acetamide]	0.2	4.6	38.8	4.3
C#Cc1ccc(C(=O)c2ccc(OCc3nc4cnc5[nH]ccc5c4n3[C@H]3CC[C@H](CC#N)CC3)cc2)cc1 [Ex. 130, 2-((1r,4r)-4-(2-((4-(4-Ethynylbenzoyl)phenoxy)methyl)imidazo[4,5-d]pyrrolo[2,3-b]pyridin-1(6H)-yl)cyclohexyl)acetonitrile]	0.8	15.7	130	19.4
N#CC[C@H]1CC[C@H](n2c(C3CCN(c4ccc(C#N)cc4)CC3)nc3cnc4[nH]ccc4c32)CC1 [Ex. 76, 4-(4-(1-((1r,4r)-4-(Cyanomethyl)cyclohexyl)-1,6-dihydroimidazo[4,5-d]pyrrolo[2,3-b]pyridin-2-yl)piperidin-1-yl)benzonitrile]	0.4	23.6	1210	16.8
N#CC[C@H]1CC[C@H](n2c(CNC(=O)c3ccc(C#N)cc3)nc3cnc4[nH]ccc4c32)CC1 [Ex. 82, 4-Cyano-N-((1-((1r,4r)-4-(cyanomethyl)cyclohexyl)-1,6-dihydroimidazo[4,5-d]pyrrolo[2,3-b]pyridin-2-yl)methyl)benzamide]	0.4	13.6	189	5.2

Continued, values first:

IC50 (JAK1-JH1JH2) [nM]	IC50 (JAK2-JH1JH2) [nM]	IC50 (JAK3-JH1JH2) [nM]	IC50 (Tyk2-JH1JH2) [nM]	SMILES
1.6	125	2150	174	CC(=O)N1CCC(c2nc3cnc4[nH]ccc4c3n2[C@H]2CC[C@H](CC#N)CC2)CC1 [Ex. 164, 2-((1r,4r)-4-(2-(1-Acetylpiperidin-4-yl)imidazo[4,5-d]pyrrolo[2,3-b]pyridin-1(6H)-yl)cyclohexyl)acetonitrile]
1.1	50.4	767	36.2	N#CC[C@H]1CC[C@H](n2c(CNC(=O)c3ccccc3)nc3cnc4[nH]ccc4c32)CC1 [Ex. 148, N-((1-((1r,4r)-4-(Cyanomethyl)cyclohexyl)-1,6-dihydroimidazo[4,5-d]pyrrolo[2,3-b]pyridin-2-yl)methyl)benzamide]
1.3	48.5	368	20.1	N#CC[C@H]1CC[C@H](n2c(CNC(=O)NCC3CCCCC3)nc3cnc4[nH]ccc4c32)CC1 [Ex. 155, 1-((1-((1r,4r)-4-(Cyanomethyl)cyclohexyl)-1,6-dihydroimidazo[4,5-d]pyrrolo[2,3-b]pyridin-2-yl)methyl)-3-(cyclohexylmethyl)urea]
2.8	21.2	803	53.5	N#CC[C@H]1CC[C@H](n2c(CO/N=C(\N)C34CC5CC(CC(C5)C3)C4)nc3cnc4[nH]ccc4c32)CC1 [Ex. 152, (3R,5R,7R,E*)-N′-((1-((1r,4r)-4-(Cyanomethyl)cyclohexyl)-1,6-dihydroimidazo[4,5-d]pyrrolo[2,3-b]pyridin-2-yl)methoxy)adamantane-1-carboximidamide]
3.7	82.2	4650	254	N#CC[C@H]1CC[C@H](n2c(-c3cccnc3N)nc3cnc4[nH]ccc4c32)CC1 [Ex. 186, 2-((1r,4r)-4-(2-(2-aminopyridin-3-yl)imidazo[4,5-d]pyrrolo[2,3-b]pyridin-1(6H)-yl)cyclohexyl)acetonitrile]
< 4	2.1	24.4	1.2	CNC(=O)Cc1nc2cnc3[nH]ccc3c2n1[C@H]1CC[C@H](CC#N)CC1 [Ex. 198, 2-(1-((1r,4r)-4-(Cyanomethyl)cyclohexyl)-1,6-dihydroimidazo[4,5-d]pyrrolo[2,3-b]pyridin-2-yl)-N-methylacetamide]

— US10981911B2, “Imidazopyrrolopyridine as inhibitors of the JAK family of kinases” (Janssen Pharmaceutica NV, priority 2016, dated 2021)
